From patent US20060194698A1, “Use of herbs as a delivery system for bioactive phytochemicals” (priority 2003, published 2006)

Columns and labels:
Alternaria = test: Essential oil components against Alternaria growth (saturated cotton swab suspended above culture); type: cell-based; details: pure essential oil component
Description: Antifungal activity of the essential oil components against Rhizoctonia and Pythium will be tested by means previously used to evaluate Alternaria growth. Briefly, a cotton swab saturated with the oil is suspended above a culture of the test pathogen. Fungal dry weight is then determined. Appropriate controls are performed.

Sclerotinia = test: Essential oil components / ground herbage against Sclerotinia and its sclerotia; type: cell-based; details: pure essential oil component

SMILES	growth of Alternaria (Alternaria)	activity against the sclerotia of Sclerotinia (Sclerotinia)	growth of Sclerotinia (Sclerotinia)
Cc1ccc(C(C)C)c(O)c1 [thymol]	completely inhibit growth	inhibitory activity	completely inhibit growth
Cc1ccc(C(C)C)cc1O [carvacrol]	completely inhibit growth	inhibitory activity	completely inhibit growth
C=C(C)[C@H]1CC=C(C)CC1 [limonene]	inhibit the growth of Alternaria, but not as effectively as cymene		
CC(C)=CCC/C(C)=C/CO [geraniol]	completely inhibit growth	inhibitory activity	completely inhibit growth
Cc1ccc(C(C)C)cc1 [cymene, p-cymene]	reduce the growth		
